# Test results: patent US10721937B1, “Preservative systems and compositions and methods incorporating same” (CODEX BEAUTY CORPORATION, priority 2019, dated 2020)
# Tested on: skin of human volunteers
# Test: Human Repeat Insult Patch Test (HRIPT), skin irritation and sensitization
# Assay type: in vivo
# Details: positive control, study of Example 28, 51 subjects completing
# Description: Prior to utilizing in-vivo efficacy testing, however, it must first be determined that application of the product onto the skin of human volunteers will not cause them to experience an allergic reaction or some form of painful irritation. This is done by performing what is known as a Human Repeat Insult Patch Test (HRIPT). This is an internationally recognized test used to determine the potential for irritation, sensitization, and allergic reaction potential of a product. In view of the growing number of exotic ingredients used in skin care formulations, coupled with the increasingly complex and sophisticated chemical composition of the formulas, the risk of individuals experiencing irritation and allergic reactions because of their use has increased substantially. […] Any allergic reactions experienced by the test subject will be observed, recorded, and evaluated by a dermatologist to confirm, or not, the safety of the product. […]
# Each HRIPT included about 50 subjects. In addition to demographic data collected for each subject, a Fitzpatrick Skin Type was also determined. […]
# This procedure was repeated until a series of 9 consecutive, 24-hour exposures had been made 3 times a week for three 3 consecutive weeks. Prior to each reapplication, the test sites evaluated by trained laboratory personnel. […]
smiles,measurement,value
"CCCCCCCCCCCCOS(=O)(=O)[O-].[Na+] [2.0% Sodium Lauryl Sulfate Solution, Sodium Lauryl Sulfate]",number of subjects with a Grade 1 reaction in HRIPT,4 subjects
same,number of subjects with a Grade 3 reaction in HRIPT,one
